Assay results: patent US20150164895A1, “DETERMINING SENSITIVITY OF CELLS TO B-RAF INHIBITOR TREATMENT BY DETECTING KRAS MUTATION AND RTK EXPRESSION LEVELS” (GENENTECH, INC., priority 2009, published 2015)
Several values for one entry are separate records, joined by “and”; a condition that tells them apart may be missing. Equal entries are not always repeated.

Legend:
lung tumor xenografts = assay: Experiment H327: growth in lung tumor xenografts after dosing with B-RAF inhibitor; assay type: in vivo, mice; settings: for Absolute body weight / Relative body weight / Survival time: individual animal; for Relative tumor volume / Absolute tumor volume: (a*b*b)/2: individual tumor
Source text: FIGS. 10-18 depict growth in lung tumor xenografts after dosing with GDC-0879.
The data are shown below, and in FIGS. 10-14 for Experiment H331 and FIGS. 15-18 for Experiment H327.

WT Raf isoforms = assay: Biochemical enzyme assay at physiological [ATP]
Source text: FIG. 1 depicts Biochemical enzyme assay data.

[1] = test system: Venus-C-RAF / CFP-K-RAS in HEK293T cells; assay: C-RAF plasma membrane translocation, live cell confocal imaging; assay type: cell-based; set-up: dose or concentration left out as unconfirmed
Source text: Aliquots of the membrane and cytosolic fractions were immunoblotted with the indicated antibodies. (B) HEK293T cells were transiently transfected with Venus-C-RAF (green), CFP-K-RAS (red) and mCherry-H2B (blue).

[2] = H327-2, LXFA 1041/9N4, 100 mg/kg/day po Days 0-20, study day 17, listed as G-026887
[3] = H327-2, LXFA 1041/9N4, 100 mg/kg/day po Days 0-20, study day 20, group median n 10
[4] = H327-2, LXFA 1041/9N4, 100 mg/kg/day po Days 0-20, study day 20, group median n 20
[5] = H327-2, LXFA 1041/9N4, 100 mg/kg/day po Days 0-20, study day 20, listed as G-026887
[6] = H327-5, LXFA 1041/9N4, 100 mg/kg/day po Day 0, study day 0, group median n 6
[7] = H327-5, LXFA 1041/9N4, 100 mg/kg/day po Day 0, study day 0, listed as G-026887
[8] = H327-6, LXFA 1041/9N4, 100 mg/kg/day po Day 0, study day 0, group median n 3
[9] = H327-6, LXFA 1041/9N4, 100 mg/kg/day po Day 0, study day 0, listed as G-026887

With `OCCn1cc(-c2ccc3c(c2)CC/C3=N\O)c(-c2ccncc2)n1` [GDC-0879, 2-{4-[(1E)-1-(hydroxyimino)-2,3-dihydro-1H-inden-5-yl]-3-(pyridine-4-yl)-1H-pyrazol-1-yl}ethan-1-ol] the “Relative tumor volume, Median” value (lung tumor xenografts; H327-2, LXFA 1041/9N4, 100 mg/kg/day po Days 0-20, study day 17, group median n 20) was 900.4%, the Absolute body weight (lung tumor xenografts; [2]) was 24.8 g and 30.3 g and 25.1 g and 25.0 g and 24.7 g and 26.2 g and 31.9 g and 31.1 g and 26.4 g and 22.7 g and the Relative body weight (lung tumor xenografts; [2]) was 97.6% and 105.9% and 102.4% and 102.0% and 102.9% and 104.4% and 107.0% and 98.7% and 105.6% and 96.2%. The Relative tumor volume (lung tumor xenografts; [2]) was 1372.2% and 1073.6% and 869.4% and 770.2% and 1242.1% and 1093.2% and 1915.9% and 1727.1% and 932.7% and 931.4% and 937.2% and 831.6% and 856.0% and 746.4%, the “Absolute body weight, Median” value (lung tumor xenografts; [3]) was 26.9 g and the “Relative body weight, Median” value (lung tumor xenografts; [3]) was 108.0%. For the same molecule, the “Absolute tumor volume: (a*b*b)/2, Median” value (lung tumor xenografts; [4]) was 928.6 mm3, the “Relative tumor volume, Median” value (lung tumor xenografts; [4]) was 1023.2% and the Absolute body weight (lung tumor xenografts; [5]) was 25.4 g and 31.4 g and 25.8 g and 26.3 g and 26.1 g and 28.3 g and 33.2 g and 32.4 g and 27.4 g and 23.1 g. For the same molecule, the Relative body weight (lung tumor xenografts; [5]) was 100.0% and 109.8% and 105.3% and 107.3% and 108.8% and 112.7% and 111.4% and 102.9% and 109.6% and 97.9%, the Relative tumor volume (lung tumor xenografts; [5]) was 1795.5% and 1109.8% and 1056.9% and 872.2% and 1346.4% and 1155.4% and 2275.4% and 1830.4% and 1070.4% and 1264.0% and 971.2% and 860.0% and 980.4% and 989.5% and the “Absolute tumor volume: (a*b*b)/2” value (lung tumor xenografts; H327-2, LXFA 1041/9N4 Lung, adeno, 100 mg/kg/day po Days 0-20, study day 0, listed as G-026887, 100 mg/kg/day) was 47.6 mm3 and 100.9 mm3 and 90.8 mm3 (2×) and 111.6 mm3 and 68.8 mm3 and 57.6 mm3 and 62.5 mm3 and 84.7 mm3 and 50.6 mm3 and 210.8 mm3 and 117.2 mm3 and 139.4 mm3. For the same molecule, the “Absolute tumor volume: (a*b*b)/2” value (lung tumor xenografts; H327-2, LXFA 1041/9N4 Lung, adeno, 100 mg/kg/day po Days 0-20, study day 3, listed as G-026887, 100 mg/kg/day) was 92.3 mm3 and 210.8 mm3 and 140.4 mm3 and 209.5 mm3 and 139.3 mm3 and 90.8 mm3 and 68.8 mm3 and 145.4 mm3 and 117.0 mm3 and 98.3 mm3 and 292.8 mm3 and 201.6 mm3 and 249.4 mm3, the “Absolute tumor volume: (a*b*b)/2” value (lung tumor xenografts; H327-2, LXFA 1041/9N4 Lung, adeno, 100 mg/kg/day po Days 0-20, study day 7, listed as G-026887, 100 mg/kg/day) was 215.1 mm3 and 332.8 mm3 and 272.8 mm3 and 291.2 mm3 and 258.8 mm3 and 147.9 mm3 and 212.5 mm3 and 294.4 mm3 and 197.0 mm3 and 126.0 mm3 and 470.6 mm3 and 344.4 mm3 and 392.9 mm3 and the “Absolute tumor volume: (a*b*b)/2” value (lung tumor xenografts; H327-2, LXFA 1041/9N4 Lung, adeno, 100 mg/kg/day po Days 0-20, study day 10, listed as G-026887, 100 mg/kg/day) was 279.3 mm3 and 491.9 mm3 and 461.7 mm3 and 420.1 mm3 and 284.6 mm3 and 237.2 mm3 and 326.4 mm3 and 510.3 mm3 and 274.4 mm3 and 173.2 mm3 and 701.8 mm3 and 451.3 mm3 and 546.2 mm3. For the same molecule, the “Absolute tumor volume: (a*b*b)/2” value (lung tumor xenografts; H327-2, LXFA 1041/9N4 Lung, adeno, 100 mg/kg/day po Days 0-20, study day 14, listed as G-026887, 100 mg/kg/day) was 458.8 mm3 and 819.3 mm3 and 538.6 mm3 and 575.5 mm3 and 510.9 mm3 and 401.6 mm3 and 672.9 mm3 and 1044.8 mm3 and 426.3 mm3 and 312.1 mm3 and 1321.4 mm3 and 613.8 mm3 and 1022.5 mm3, the “Absolute tumor volume: (a*b*b)/2” value (lung tumor xenografts; H327-2, LXFA 1041/9N4 Lung, adeno, 100 mg/kg/day po Days 0-20, study day 17, listed as G-026887, 100 mg/kg/day) was 653.0 mm3 and 1083.4 mm3 and 789.0 mm3 and 859.6 mm3 and 853.9 mm3 and 629.7 mm3 and 1197.5 mm3 and 1567.4 mm3 and 790.0 mm3 and 471.5 mm3 and 1975.9 mm3 and 974.7 mm3 and 1193.5 mm3 and the “Absolute tumor volume: (a*b*b)/2” value (lung tumor xenografts; H327-2, LXFA 1041/9N4 Lung, adeno, 100 mg/kg/day po Days 0-20, study day 20, listed as G-026887, 100 mg/kg/day) was 854.4 mm3 and 1120.0 mm3 and 959.2 mm3 and 973.4 mm3 and 925.7 mm3 and 665.5 mm3 and 1422.1 mm3 and 1661.1 mm3 and 906.6 mm3 and 639.9 mm3 and 2047.5 mm3 and 1008.0 mm3 and 1366.9 mm3. The Survival time (lung tumor xenografts; H327-5, LXFA 1041/9N4, 100 mg/kg/day po Day 0) was greater than 0 days, the “Absolute body weight, Median” value (lung tumor xenografts; [6]) was 25.6 g and the “Absolute tumor volume: (a*b*b)/2, Median” value (lung tumor xenografts; [6]) was 248.1 mm3. For the same molecule, the “Relative body weight, Median” value (lung tumor xenografts; [6]) was 100.0%, the “Relative tumor volume, Median” value (lung tumor xenografts; [6]) was 100.0% and the Relative body weight (lung tumor xenografts; H327-5, LXFA 1041/9N4, 100 mg/kg/day po Day 0, study day 0) was 100.0%. The Absolute body weight (lung tumor xenografts; [7]) was 26.3 g and 23.5 g and 24.9 g and 31.1 g and 20.8 g and 27.4 g, the “Absolute tumor volume: (a*b*b)/2” value (lung tumor xenografts; [7]) was 256.0 mm3 and 219.0 mm3 and 423.2 mm3 and 441.1 mm3 and 166.5 mm3 and 240.1 mm3 and the Survival time (lung tumor xenografts; H327-6, LXFA 1041/9N4, 100 mg/kg/day po Day 0) was greater than 0 days. The “Absolute body weight, Median” value (lung tumor xenografts; [8]) was 27.2 g, the “Absolute tumor volume: (a*b*b)/2, Median” value (lung tumor xenografts; [8]) was 267.7 mm3 and the Absolute body weight (lung tumor xenografts; [9]) was 27.9 g and 27.2 g and 25.2 g. For the same molecule, the “Absolute tumor volume: (a*b*b)/2” value (lung tumor xenografts; [9]) was 409.1 mm3 and 250.5 mm3 and 267.7 mm3, the “potency in biochemical enzyme assay” value (WT Raf isoforms) was “maintains effective potency” and the “Venus-tagged C-RAF membrane translocation” value [1] was “co-localizes with CFP-KRAS on the plasma membrane”.
